Measurements from patent US8956594B2, “Fluoride-calcium compositions, dental products, and methods for providing dental fluoride” (ADA Foundation, priority 2005, dated 2015).

Details: used in the absence of phosphate, in some trials
From the text: The anion may be any suitable stabilizing anion, by which is contemplated to be an anion the inclusion of which results in a composition that is stable for storage and transport as against precipitation of calcium fluoride, the composition not being stable (or as stable) for storage and transport as against precipitation of calcium fluoride in the absence of the anion. In some embodiments, the anion contains the O—PO—O moiety. […] Plural anions may be employed in a single composition.

SMILES: O=P(O)(O)OP(=O)(O)O [pyrophosphate]
- effectiveness as stabilizing anion: not to be effective
